Data as given in patent US20100158980A1, “DRUG DELIVERY DEVICES FOR DELIVERY OF THERAPEUTIC AGENTS” (priority 2008, published 2010).
≈ marks a conversion by molar mass, not a printed value. Where a name gives a salt, the structure may show the parent alone.

Assay: physchem
Excerpt: The active agent may be any active agent suitable to treat the desired condition. […] Examples include, but are not limited to, acetazolamide, dorzolamide HCl, timolol maleate, and ethacrynic acid sodium salt.

Compound	solubility (aqueous buffer)	solubility class	further results
CC[C@H](C)C(=O)O[C@H]1C[C@@H](C)C=C2C=C[C@H](C)[C@H](CC[C@@H]3C[C@@H](O)CC(=O)O3)[C@H]21 [lovastatin]	< 300 µg/mL	–	–
Brc1c(NC2=NCCN2)ccc2nccnc12 [brimonidine free base]	–	–	solubility: 360 µg/mL (≈ 1230 µM)
C[C@@H]1C[C@H]2[C@@H]3CCC4=CC(=O)C=C[C@]4(C)[C@@]3(F)[C@@H](O)C[C@]2(C)[C@@]1(O)C(=O)CO [dexamethasone]	< 300 µg/mL	low solubility	–
brimonidine tartrate	–	–	solubility (in water at pH 7.7): 600 µg/mL
C=C(CC)C(=O)c1ccc(OCC(=O)O)c(Cl)c1Cl [ethacrynic acid sodium salt]	> 1000 µg/mL	high solubility	–
CC(=O)Nc1nnc(S(N)(=O)=O)s1 [acetazolamide]	> 1000 µg/mL	–	–
CC(C)(C)NC[C@H](O)COc1nsnc1N1CCOCC1 [timolol maleate]	> 1000 µg/mL	high solubility	–
CCNC(=O)CCC/C=C\C[C@@H]1[C@@H](/C=C/[C@@H](O)CCc2ccccc2)[C@H](O)C[C@@H]1O [bimatoprost]	–	low solubility	–
C[C@@H]1C[C@H]2[C@@H]3CCC4=CC(=O)C=C[C@]4(C)[C@@]3(F)[C@@H](O)C[C@]2(C)[C@@]1(O)C(=O)COP(=O)(O)O [dexamethasone sodium phosphate]	–	high solubility	–
O=C(O)CCCCCC[C@@H]1[C@@H](CC[C@@H](O)c2cc3ccccc3s2)[C@H](O)C[C@@H]1O [AR-102 free acid, 7-((1R,2R,3R,5S)-2-((R)-3-(benzo[b]thiophen-2-yl)-3-hydroxypropyl)-3,5-dihydroxycyclopentyl)heptanoic acid]	–	moderate solubility	–
CCN[C@H]1C[C@H](C)S(=O)(=O)c2sc(S(N)(=O)=O)cc21 [dorzolamide HCl]	> 1000 µg/mL	high solubility	–
O=C(O)CCC/C=C\C[C@@H]1[C@@H](CC[C@@H](O)CCc2ccccc2)[C@H](O)C[C@@H]1O [latanoprost free acid]	–	–	solubility: 800 µg/mL (≈ 2050 µM)
